Source: patent US3984440A, “Polyene compounds” (Hoffmann-La Roche Inc., priority 1973, dated 1976)

How the values were obtained:
[1] = acute toxicity after intraperitoneal administration in rape oil; conditions: mouse, in vivo, ip
[2] = test system: papillomas induced with dimethyl-benzanthracene and croton oil; assay: papilloma test: regression of tumors induced with dimethyl-benzanthracene and croton oil; type: in vivo; conditions: mice, intraperitoneal, 400mg/kg/week, within two weeks
Procedure: The polyene compounds of formula I are useful in the topical and systemic prophylaxis and treatment of benignant and malignant neoplasias and premalignant lesions. The tumor-inhibiting activity of the polyene compounds of the invention is significant. […] The diameter of such papillomas in mice decreased by 55% within two weeks upon intraperitoneal administration of 400mg/kg/week of 9-(2,2,5,7,8-pentamethyl-chroman-6-yl)-3,7-dimethyl-nona-2,4,6,8-tetraen-1-oic acid.

`CC(/C=C/c1c(C)c(C)c2c(c1C)CCC(C)(C)O2)=C\C=C\C(C)=C\C(=O)O` [9-(2,2,5,7,8-pentamethyl-chroman-6-yl)-3,7-dimethyl-nona-2,4,6,8-tetraen-1-oic acid] showed an LD50 [1] of 950 mg/kg, an LD50 at 24 h [1] greater than 4000 mg/kg and an LD50 at 240 h [1] of 950 mg/kg. For the same compound, the LD50 at 480 h [1] was 950 mg/kg and the “decrease of diameter of papillomas” value [2] was 55%.
